Ki data for seven compounds are collected here from ChEMBL document CHEMBL1122846, “Design and synthesis of new transition-state analogue inhibitors of aspartate transcarbamylase” (J Med Chem, 1985).

As a reminder, the Ki is the dissociation constant of the complex between target and ligand, obtained from inhibition or displacement. Read a high Ki as lower affinity.

Each structure is given as a SMILES string.

The first experiment in a line: Compound is evaluated for inhibition of aspartate transcarbamoylase (ATCase). Also on record: species or system Escherichia coli.
As for `O=C(O)CC(SCP(=O)(O)O)C(=O)O` (configuration not stated), affinity was put at a Ki of 1100 µM.

A further experiment is described as follows: Compound is evaluated for inhibition of aspartate transcarbamoylase (ATCase). Also on record: species or system Escherichia coli.
As for `O=C(O)CC(OC(=O)CP(=O)(O)O)C(=O)O` (configuration not stated), the Ki is 2 µM. In the case of `O=C(O)CC(C[S+]([O-])CP(=O)(O)O)C(=O)O` (configuration not stated), the Ki is 2300 µM. Compound `O=C(O)CC(CSCP(=O)(O)O)C(=O)O` (configuration not stated) came in with a Ki of 430 µM. Still for that read-out and setting: to `O=C(O)CC(CS(=O)(=O)CP(=O)(O)O)C(=O)O` (configuration not stated) belongs 650 µM; to `O=C(O)CC(NS(=O)(=O)CP(=O)(O)O)C(=O)O` (configuration not stated), 500 µM. Same read-out and setting: next, `O=C(O)CC(NC(=O)CP(=O)(O)O)C(=O)O` (configuration not stated) [SPARFOSIC ACID]: 0.03 µM.
